# In patent publication US6956049B1, “Methods of modulating processes mediated by excitatory amino acid receptors” (Merck & Co., Inc., priority 1999, dated 2005):
# Structures can show the parent of a compound that is named as a salt.
# Columns and labels:
# hmGluR5a receptor = target: T1, hmGluR5a receptor (Homo sapiens, UniProt P41594); test: Calcium flux assay; type: cell-based; details: hmGluR5a/L38-20 cells (mouse fibroblast Ltk), fura-2, glutamate 10 μM (EC80); read-out: Ca^2+ Flux
# T1 construct: expressed in transfected cells; host or cells: mouse fibroblast Ltk cells (hmGluR5a/L38-20 cell line)
# Experimental: The activity of compounds was examined against the hmGluR5a receptor stably expressed in mouse fibroblast Ltk cells (the hmGluR5a/L38-20 cell line). See generally Daggett et al., Neuropharmacology 34:871–886 (1995). Receptor activity was detected by changes in intracellular calcium ([Ca^++]i) measured using the fluorescent calcium-sensitive dye, fura-2. hmGluR5a/L38-20 cells were plated onto 96-well plates, and loaded with 3 μM fura-2 for 1 h. Unincorporated dye was washed from the cells, and the cell plate was transferred to a custom-built 96-channel fluorimeter (SIBIA-SAIC, La Jolla, Calif.) which is integrated into a fully automated plate handling and liquid delivery system. Cells were excited at 350 and 385 nm with a xenon source combined with optical filters. Emitted light was collected from the sample through a dichroic mirror and a 510-nm interference filter and directed into a cooled CCD camera (Princeton Instruments). Image pairs were captured approximately every 1 s, and ratio images were generated after background subtraction. After a basal reading of 20 s, an EC80 concentration of glutamate (10 μM) was added to the well, and the response evaluated for another 60 s. The glutamate-evoked increase in [Ca^++]i in the presence of the screening compound was compared to the response of glutamate alone (the positive control).
# hmGluR5 = target: T2, hmGluR5 (Homo sapiens, UniProt P41594); test: Phosphatidylinositol hydrolysis (IP1) assay; type: cell-based; details: hmGluR5/L38-20 cells (mouse fibroblast Ltk), [3H]-inositol, 10 μM glutamate, 1 hour; read-out: PI Hydrolysis
# T2 construct: expressed in transfected cells; host or cells: mouse fibroblast Ltk cells (hmGluR5/L38-20 cells)
# Experimental: Inositol phophate assays were performed as described by Berridge et al. (1982) (Berridge et al, (1982) Biochem. J. 206:587–5950; and Nakajima et al., J. Biol. Chem. 267:2437–2442 (1992)) with slight modifications. Mouse fibroblast Ltk cells expressing hmGluR5 (hmGluR5/L38-20 cells) were seeded in 24-well plates at a density of 8×10^5 cells/well. One μCi of [^3H]-inositol (Amersham PT6-271; Arlington Heights, Ill.; specific activity=17.7 Ci/mmol) was added to each well and incubated for 16 h at 37° C. Cells were washed twice and incubated for 45 min in 0.5 ml of standard Hepes buffered saline buffer (HBS; 125 mM NaCl, 5 mM KCl, 0.62 mM MgSO4, 1.8 mM CaCl2, 20 mM HEPES, 6 mM Glucose, pH to 7.4). The cells were washed with HBS containing 10 mM LiCl, and 400 μl buffer added to each well. Cells were incubated at 37° C. for 20 min. For testing, 50 μl of 10X compounds used in the practice of the invention (made in HBS/LiCl (100 mM)) was added and incubated for 10 minutes. Cells were activated by the addition of 10 μM glutamate, and the plates left for 1 hour at 37° C.
# The incubations were terminated by the addition of 1 ml ice-cold methanol to each well. In order to isolate inositol phosphates (IPs), the cells were scraped from wells, and placed in numbered glass test tubes. One ml of chloroform was added to each tube, the tubes were mixed, and the phases separated by centrifugation. IPs were separated on Dowex anion exchange columns (AG 1-X8 100–200 mesh formate form). The upper aqueous layer (750 ul) was added to the Dowex columns, and the columns eluted with 3 ml of distilled water. The eluents were discarded, and the columns were washed with 10 mls of 60 mM ammonium formate/5 mM Borax, which was also discarded as waste. Finally the columns were eluted with 4 ml of 800 mM ammonium formate/0.1 M formic acid, and the samples collected in scintillation vials. Scintillant was added to each vial, and the vials shaken, and counted in a scintillation counter after 2 hours. Phosphatidylinositol hydrolysis in cells treated with test compounds was compared to phosphatidylinositol hydrolysis in cells treated with control and the results are shown in Table 1.
# [1] = Assessment of salt forms (solubility, hygroscopicity); type: physicochemical; details: salt form
# Experimental: Various salt forms of 2-(phenylethynyl)-1,3-thiazole were prepared, and their solubility, hygroscopicity, and physical state were assessed. The compound 2-phenylethynl-1,3-thiazole was prepared (see Example 8) as well as hydrochloric acid, fumaric acid, methylsulfonic acid and toluene sulfonic acid salt forms of the compound. The hydrochloric acid salt form of 2-(phenylethynyl)-1,3-thiazole is an oil. A fumaric acid salt form was not obtained by preparative steps including trituration with diethylether. Preparation of the methylsulfonate form results in a semi solid, hygroscopic material. These salt forms are typically unsuitable for certain pharmaceutical formulations, such as for tablets, capsules, and the like. In contrast to the salt forms of 2-(phenylethynyl)-1,3-thiazole, described previously, the tosylate salt form (i.e., the toluene sulfonic acid salt) is a solid having a melting point of about 129 up to 131° C. and is non-hygroscopic. Therefore, this form is presently preferred for pharmaceutical formulations of tablets, capsules, and the like.
# [2] = tested on: male Sprague-Dawley rats, CFA-inflamed hind paw; test: Analgesic animal model (CFA model); type: in vivo; set-up: key: +++: high analgesic efficacy; details: rat, 240 μmol/kg intraperitoneal, evaluated one to 24 hours post administration
# Experimental: Compounds that modulate receptor-mediated analgesic responses wer tested in an animal model. Robust inflammation was induced by the injection of complete Freund's adjuvant (CFA, 10 mg/ml) subcutaneously into the hind paw of male Sprague-Dawley rats (150–175 g). The inflammatory response to CFA began approximately 12-hrs post-CFA injection and persisted for several days following inoculation. The inflamed hind paw became sensitive to noxious (paw pinch, plantar test) or innocuous (cold plate, Von Frey filaments) stimuli compared to the contralateral hind paw. Test compounds (240 μmol/kg) were administered via intraperitoneal injection. The analgesic activity of compounds was evaluated one to 24-hours post administration by assessing (1) the duration of analgesic effect; (2) threshold to elicit response; and (3) time from painful stimulus to response. […] For each group of animals, responses following drug administration were compared to responses prior to drug administration.
# T2 sequence (P41594 21-1180 isoform P41594-2 limits assumed): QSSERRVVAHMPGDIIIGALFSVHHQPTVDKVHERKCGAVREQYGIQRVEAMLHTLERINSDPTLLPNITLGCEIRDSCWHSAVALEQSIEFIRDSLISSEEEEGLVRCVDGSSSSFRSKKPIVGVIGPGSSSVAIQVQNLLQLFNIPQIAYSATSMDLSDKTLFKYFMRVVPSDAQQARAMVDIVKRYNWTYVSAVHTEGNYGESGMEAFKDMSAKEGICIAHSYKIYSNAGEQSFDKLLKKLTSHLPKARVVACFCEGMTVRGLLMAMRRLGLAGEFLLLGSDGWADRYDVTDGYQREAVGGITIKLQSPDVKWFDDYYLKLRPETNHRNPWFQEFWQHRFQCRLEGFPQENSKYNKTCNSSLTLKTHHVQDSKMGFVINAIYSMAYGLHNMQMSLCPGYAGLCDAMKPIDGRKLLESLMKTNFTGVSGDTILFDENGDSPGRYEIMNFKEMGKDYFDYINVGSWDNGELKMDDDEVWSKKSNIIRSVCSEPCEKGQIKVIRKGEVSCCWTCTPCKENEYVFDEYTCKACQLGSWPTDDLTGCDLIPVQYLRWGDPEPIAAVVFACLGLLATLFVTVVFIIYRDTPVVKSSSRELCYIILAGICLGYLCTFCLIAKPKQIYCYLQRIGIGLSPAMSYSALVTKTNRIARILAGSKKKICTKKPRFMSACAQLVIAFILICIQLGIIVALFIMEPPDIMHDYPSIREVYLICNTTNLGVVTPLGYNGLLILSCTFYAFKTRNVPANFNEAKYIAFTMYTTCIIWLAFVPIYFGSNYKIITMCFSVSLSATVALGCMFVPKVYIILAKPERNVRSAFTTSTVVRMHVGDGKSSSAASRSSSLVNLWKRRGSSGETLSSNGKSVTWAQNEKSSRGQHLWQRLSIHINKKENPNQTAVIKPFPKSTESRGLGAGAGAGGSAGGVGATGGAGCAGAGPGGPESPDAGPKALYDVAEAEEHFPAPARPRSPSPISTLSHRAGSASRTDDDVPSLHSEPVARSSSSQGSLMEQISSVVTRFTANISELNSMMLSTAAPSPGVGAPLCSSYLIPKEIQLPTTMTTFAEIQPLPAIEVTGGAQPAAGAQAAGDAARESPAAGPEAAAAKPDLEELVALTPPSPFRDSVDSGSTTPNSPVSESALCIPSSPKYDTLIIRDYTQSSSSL
# T1 sequence (P41594 21-1180 isoform P41594-2 limits assumed): as above
IC50 (hmGluR5a receptor) [nM],IC50 (hmGluR5) [µM],hygroscopicity [1],solubility in aqueous medium [1],melting point [°C],Structure (SMILES),CFA Model (analgesic efficacy) [2]
10 to 100,10 to 100,,,,"Cc1csc(C=Cc2ccccc2)n1 (mixture of isomers) [Example 2, 4-Methyl-2-[2-phenylethenyl]-1,3-thiazole]",
1000 to 10000,10 to 100,,,,"Cc1coc(/C=C/c2ccccc2)n1 [Example 1, 4-Methyl-2-[(E)-2-phenylethenyl]-1,3-oxazole]",
100 to 1000,1 to 10,,,,"Cc1nc(/C=C/c2ccccc2)cs1 [Example 3, 2-Methyl-4-[(E)-2-phenylethenyl]-1,3-thiazole]",
≤ 10,≤ 0.1,,,,"Cc1nc(C#Cc2ccccc2)cs1 [Example 4, 2-Methyl-4-(phenylethynyl)-1,3-thiazole, p-toluenesulfonic acid salt]",
> 10000,> 100,,,166 to 168,"Cc1nc(/C=C/c2ccccc2)no1 [Example 15, 5-Methyl-3-[(E)-2-phenylethenyl]-1,2,4-oxadiazole]",
> 10000,> 100,,,53 to 55,"C(=C\c1ncno1)/c1ccccc1 [Example 16, 5-[(E)-2-phenylethenyl]-1,2,4-oxadiazole]",
> 10000,> 100,,,67 to 70,"Cn1ncnc1/C=C/c1ccccc1 [Example 17, 1-Methyl-5-[(E)-2-phenylethenyl]-1H-1,2,4-triazole]",
> 10000,> 100,,,131 to 134,"Cc1n[nH]c(/C=C/c2ccccc2)n1 [Example 18, 3-Methyl-5-[(E)-2-phenylethenyl]-1H-1,2,4-triazole]",
100 to 1000,10 to 100,,,79 to 80,"CCOC(=O)c1nc(/C=C/c2ccccc2)ns1 [Example 19, Ethyl 3-[(E)-2-phenylethenyl]-1,2,4-thiadiazole-5-carboxylate]",
1000 to 10000,> 100,,,119 to 120,"OCc1nc(/C=C/c2ccccc2)ns1 [Example 20, {3-[(E)-2-phenylethenyl]-1,2,4-thiadiazol-5-yl}methanol]",

# Second part, the molecule before the results:
Structure (SMILES),IC50 (hmGluR5a receptor) [nM],IC50 (hmGluR5) [µM],hygroscopicity [1],solubility in aqueous medium [1],melting point [°C],CFA Model (analgesic efficacy) [2]
"Nc1nc(C#Cc2ccccc2)cs1 [Example 5, 4-(Phenylethynyl)-1,3-thiazol-2-amine, p-toluenesulfonic acid salt]",10 to 100,0.1 to 1,,,,
"Cc1ncsc1C#Cc1ccccc1 [Example 6, 4-Methyl-5-(phenylethynyl)-1,3-thiazole]",10 to 100,10 to 100,,,,
"Cc1ncsc1C#Cc1ccccc1F [Example 7, 5-[(2-Fluorophenyl)ethynyl]-4-methyl-1,3-thiazole]",100 to 1000,> 100,,,,
"C(#Cc1nccs1)c1ccccc1.Cc1ccc(S(=O)(=O)O)cc1 [Example 8, 2-(Phenylethynyl)-1,3-thiazole, p-toluenesulfonic acid salt]",≤ 10,0.1 to 1,non-hygroscopic,soluble in aqueous medium,,+++
"Brc1csc(C#Cc2ccccc2)n1 [Example 9, 4-bromo-2-(phenylethynyl)-1,3-thiazole]",10 to 100,1 to 10,,,79 to 82,
"Cc1cnc(C#Cc2ccccc2)s1 [Example 10, 5-Methyl-2-(phenylethynyl)-1,3-thiazole]",> 10000,> 100,,,82 to 83,
"Cc1cccc(C#Cc2nccs2)c1 [Example 11, 2-[(3-methylphenyl)ethynyl]-1,3-thiazole]",10 to 100,0.1 to 1,,,,
"Fc1ccc(C#Cc2nccs2)cc1 [Example 12, 2-[(4-Fluorophenyl)ethynyl]-1,3-thiazole]",100 to 1000,1 to 10,,,78 to 79,
"Fc1ccccc1C#Cc1nccs1 [Example 13, 2-[(2-Fluorophenyl)ethynyl]-1,3-thiazole]",10 to 100,0.1 to 1,,,,
"Cc1nc(C#Cc2ccccc2)sc1C [Example 14, 4,5-Dimethyl-2-(phenylethynyl)-1,3-thiazole]",≤ 10,1 to 10,,,55 to 60,
"Cc1ccc(C#CC2=CCCCC2)s1 [Example 21, 2-(1-Cyclohexen-1-ylethynyl)-5-methylthiophene]",> 10000,> 100,,,,
"C(#Cc1nccs1)c1ccccc1 [methylsulfonate form, 2-(phenylethynyl)-1,3-thiazole]",,,hygroscopic,,,
